Experimental data published in US4336263A, “1,4-Cycloalkano-oxazepines, salts thereof and analgesic uses thereof” (priority 1978, dated 1982).

System: not listed separately
Experiment: in vivo
Type: in vivo, mice (NMRI strain)
Settings: mouse, in vivo, ip; 46.4 mg/kg administered intraperitoneally; read-out: treated animals killed
Protocol: (§1) The model used for testing the analgesic action was the tail flick test of D'AMOUR and SMITH (J. Pharmacol. 72 (1941), 74-79). In this experiment, the compounds to be tested were administered intraperitoneally or orally, as aqueous solutions (injection volume 10 ml/kg) to groups of 10 female mice (NMRI strain) weighing 20-22 g each.
(§2) Pain reactions are caused before, and 30 minutes after, the administration of the compound, by means of thermal irritation (the tail being exposed to focused heat radiation from a halogen lamp for at most 30 seconds).
(§3) The time until the tail is drawn out of the radiation zone by reflex action is measured, and taken as the reaction time. Its average value, for 670 untreated animals, is 6.5±0.29 sec.
(§4) Analgesic substances increase the reaction time, to an extent depending on the dose. There is a linear relationship between the logarithms of the doses (mg/kg) and of the relative increase in reaction time (Δ%), from which the dose, defined as the ED 100%, which doubles the reaction time can be calculated by means of regression analysis. For a radiation exposure period of at most 30 seconds, the maximum possible increase in the reaction time is about 360%.
Molecule CN1CCOC(c2ccccc2)c2ccccc2C1 (stereo not drawn) [Nefopam, 5-methyl-1-phenyl-3,4,5,6-tetrahydro-1H-benz[f]-2,5-oxazocine, reference compound] has a mortality of 60%.

Same assay, conditions: mouse, in vivo, po; 100 mg/kg administered orally; read-out: treated animals killed
CN1CCOC(c2ccccc2)c2ccccc2C1 (stereo not drawn) [Nefopam, 5-methyl-1-phenyl-3,4,5,6-tetrahydro-1H-benz[f]-2,5-oxazocine, reference compound] showed a mortality of 60%.

System: female mice (NMRI strain)
Experiment: in vivo
Type: in vivo
Settings: 46.4 mg/kg intraperitoneally
Protocol: as §1, §2, §3, §4
For CN1CCOC(c2ccccc2)c2ccccc2C1 (stereo not drawn) [Nefopam, 5-methyl-1-phenyl-3,4,5,6-tetrahydro-1H-benz[f]-2,5-oxazocine, reference compound], the animals died was 6 out of 10 animals.

Same assay, conditions: 100 mg/kg orally
For CN1CCOC(c2ccccc2)c2ccccc2C1 (stereo not drawn) [Nefopam, 5-methyl-1-phenyl-3,4,5,6-tetrahydro-1H-benz[f]-2,5-oxazocine, reference compound], the animals died was 6 out of 10 animals.

Same assay, conditions: Mus musculus, 0.5 h; oral administration; 30 minutes after administration; read-out: ED 100% (dose which increases the reaction time by 100%)
CN1CCOC(c2ccccc2)c2ccccc2C1 (stereo not drawn) [Nefopam, 5-methyl-1-phenyl-3,4,5,6-tetrahydro-1H-benz[f]-2,5-oxazocine, reference compound] showed an ED (100%) of 46.4 mg/kg.

Same assay, conditions: Mus musculus, ip, 0.5 h, read-out: ED 100% (dose which increases the reaction time by 100%), intraperitoneal administration; 30 minutes after administration
With CC(=O)Oc1cccc([C@@]23CCCC[C@@H]2CN(C)CCO3)c1 (relative stereo) [Example 7 β, 4-Methyl-9a-(3-acetoxyphenyl)-perhydro-1,4-benzoxazepine] the ED (100%) was 12.6 mg/kg.
COc1cccc([C@@]23CCC[C@@H]2CN(C)CCO3)c1 (relative stereo) [Example 6] gave an ED (100%) of 4.66 mg/kg.

Same assay, conditions: Mus musculus, ip, 0.5 h; intraperitoneal administration; 30 minutes after administration; read-out: ED 100% (dose which increases the reaction time by 100%)
Molecule CN1CCOC(c2ccccc2)c2ccccc2C1 (stereo not drawn) [Nefopam, 5-methyl-1-phenyl-3,4,5,6-tetrahydro-1H-benz[f]-2,5-oxazocine, reference compound] has an ED (100%) of 8.08 mg/kg.

Same assay, conditions: Mus musculus, po, 0.5 h, read-out: ED 100% (dose which increases the reaction time by 100%), oral administration; 30 minutes after administration
CC(=O)Oc1cccc([C@@]23CCCC[C@@H]2CN(C)CCO3)c1 (relative stereo) [Example 7 β, 4-Methyl-9a-(3-acetoxyphenyl)-perhydro-1,4-benzoxazepine] gave an ED (100%) of 13.1 mg/kg.
In the case of COc1cccc([C@@]23CCC[C@@H]2CN(C)CCO3)c1 (relative stereo) [Example 6], the ED (100%) is reported as 9.49 mg/kg.

Same assay, conditions: i.p. ED 100% / oral ED 100%; 30 min
For CC(=O)Oc1cccc([C@@]23CCCC[C@@H]2CN(C)CCO3)c1 (relative stereo) [Example 7 β, 4-Methyl-9a-(3-acetoxyphenyl)-perhydro-1,4-benzoxazepine], the “Q (enteral activity: quotient of ED 100% for intraperitoneal and oral administration)” value was 0.96.
For CN1CCOC(c2ccccc2)c2ccccc2C1 (stereo not drawn) [Nefopam, 5-methyl-1-phenyl-3,4,5,6-tetrahydro-1H-benz[f]-2,5-oxazocine, reference compound], the “Q (enteral activity: quotient of ED 100% for intraperitoneal and oral administration)” value was 0.17.
For COc1cccc([C@@]23CCC[C@@H]2CN(C)CCO3)c1 (relative stereo) [Example 6], the “Q (enteral activity: quotient of ED 100% for intraperitoneal and oral administration)” value was 0.49.

Same assay, conditions: intraperitoneal administration; Nefopam = 1.00
Work on COc1cccc([C@@]23CCC[C@@H]2CN(C)CCO3)c1 (relative stereo) [Example 6] yielded a relative activity of 1.73.

Same assay, conditions: intraperitoneal administration; dose of maximum action
In the case of CN1CCOC(c2ccccc2)c2ccccc2C1 (stereo not drawn) [Nefopam, 5-methyl-1-phenyl-3,4,5,6-tetrahydro-1H-benz[f]-2,5-oxazocine, reference compound], the “Maximum action, mg/kg (dose)” value is reported as 21.5 mg/kg.
With COc1cccc([C@@]23CCC[C@@H]2CN(C)CCO3)c1 (relative stereo) [Example 6] the “Maximum action, mg/kg (dose)” value was 46.4 mg/kg.

Same assay, conditions: intraperitoneal administration; maximum increase without fatalities
For CC(=O)Oc1cccc([C@@]23CCCC[C@@H]2CN(C)CCO3)c1 (relative stereo) [Example 7 β, 4-Methyl-9a-(3-acetoxyphenyl)-perhydro-1,4-benzoxazepine], the “Maximum action, Δ% (increase in reaction time)” value was 275%.
With CN1CCOC(c2ccccc2)c2ccccc2C1 (stereo not drawn) [Nefopam, 5-methyl-1-phenyl-3,4,5,6-tetrahydro-1H-benz[f]-2,5-oxazocine, reference compound] the “Maximum action, Δ% (increase in reaction time)” value was 192%.
In the case of COc1cccc([C@@]23CCC[C@@H]2CN(C)CCO3)c1 (relative stereo) [Example 6], the “Maximum action, Δ% (increase in reaction time)” value is reported as 380%.

Same assay, conditions: mouse, in vivo, ip
In the case of CC(=O)Oc1cccc([C@@]23CCCC[C@@H]2CN(C)CCO3)c1 (relative stereo) [Example 7 β, 4-Methyl-9a-(3-acetoxyphenyl)-perhydro-1,4-benzoxazepine], the “Maximum action, mg/kg (dose)” value is reported as 46.4 mg/kg and the relative activity is reported as 0.64.

Same assay, conditions: mouse, in vivo, po
In the case of CC(=O)Oc1cccc([C@@]23CCCC[C@@H]2CN(C)CCO3)c1 (relative stereo) [Example 7 β, 4-Methyl-9a-(3-acetoxyphenyl)-perhydro-1,4-benzoxazepine], the “Maximum action, mg/kg (dose)” value is reported as 100 mg/kg.

Same assay, conditions: oral administration; Nefopam = 1.00
CC(=O)Oc1cccc([C@@]23CCCC[C@@H]2CN(C)CCO3)c1 (relative stereo) [Example 7 β, 4-Methyl-9a-(3-acetoxyphenyl)-perhydro-1,4-benzoxazepine] gave a relative activity of 3.54.
With CN1CCOC(c2ccccc2)c2ccccc2C1 (stereo not drawn) [Nefopam, 5-methyl-1-phenyl-3,4,5,6-tetrahydro-1H-benz[f]-2,5-oxazocine, reference compound] the relative activity was 1.00.
In the case of COc1cccc([C@@]23CCC[C@@H]2CN(C)CCO3)c1 (relative stereo) [Example 6], the relative activity is reported as 4.89.

Same assay, conditions: oral administration; dose of maximum action
With CN1CCOC(c2ccccc2)c2ccccc2C1 (stereo not drawn) [Nefopam, 5-methyl-1-phenyl-3,4,5,6-tetrahydro-1H-benz[f]-2,5-oxazocine, reference compound] the “Maximum action, mg/kg (dose)” value was 46.4 mg/kg.
With COc1cccc([C@@]23CCC[C@@H]2CN(C)CCO3)c1 (relative stereo) [Example 6] the “Maximum action, mg/kg (dose)” value was 46.4 mg/kg.

Same assay, conditions: oral administration; maximum increase without fatalities
In the case of CC(=O)Oc1cccc([C@@]23CCCC[C@@H]2CN(C)CCO3)c1 (relative stereo) [Example 7 β, 4-Methyl-9a-(3-acetoxyphenyl)-perhydro-1,4-benzoxazepine], the “Maximum action, Δ% (increase in reaction time)” value is reported as 280%.
With CN1CCOC(c2ccccc2)c2ccccc2C1 (stereo not drawn) [Nefopam, 5-methyl-1-phenyl-3,4,5,6-tetrahydro-1H-benz[f]-2,5-oxazocine, reference compound] the “Maximum action, Δ% (increase in reaction time)” value was 93%.
In the case of COc1cccc([C@@]23CCC[C@@H]2CN(C)CCO3)c1 (relative stereo) [Example 6], the “Maximum action, Δ% (increase in reaction time)” value is reported as 364%.

System: not listed separately
Experiment: acute lethal dose (LD 50) for intraperitoneal administration
Type: in vivo
Settings: Nefopam = 1.00
Text: The comparatively low toxicity of the novel compounds can also be deduced from the acute lethal dose (LD 50) for intraperitoneal administration (Table 2). The LD 50 values are from about 90% to 240% higher than those of Nefopam.
CC(=O)Oc1cccc([C@@]23CCCC[C@@H]2CN(C)CCO3)c1 (relative stereo) [Example 7 β, 4-Methyl-9a-(3-acetoxyphenyl)-perhydro-1,4-benzoxazepine] showed a Relative toxicity of 0.30.
Work on CN1CCOC(c2ccccc2)c2ccccc2C1 (stereo not drawn) [Nefopam, 5-methyl-1-phenyl-3,4,5,6-tetrahydro-1H-benz[f]-2,5-oxazocine, reference compound] yielded a Relative toxicity of 1.00.
For COc1cccc([C@@]23CCC[C@@H]2CN(C)CCO3)c1 (relative stereo) [Example 6], the Relative toxicity was 0.45.

Same assay, conditions: in vivo, ip, read-out: LD 50
Work on CC(=O)Oc1cccc([C@@]23CCCC[C@@H]2CN(C)CCO3)c1 (relative stereo) [Example 7 β, 4-Methyl-9a-(3-acetoxyphenyl)-perhydro-1,4-benzoxazepine] yielded an LD50 of 194 mg/kg.
CN1CCOC(c2ccccc2)c2ccccc2C1 (stereo not drawn) [Nefopam, 5-methyl-1-phenyl-3,4,5,6-tetrahydro-1H-benz[f]-2,5-oxazocine, reference compound] showed an LD50 of 57.3 mg/kg.
Work on COc1cccc([C@@]23CCC[C@@H]2CN(C)CCO3)c1 (relative stereo) [Example 6] yielded an LD50 of 127 mg/kg.
